From article PMC5029806, “Streptococcus pneumoniae TIGR4 Flavodoxin: Structural and Biophysical Characterization of a Novel Drug Target” (PLoS ONE, 2016)

Biological target: T1, Streptococcus pneumoniae TIGR4 flavodoxin (SpFld) (Streptococcus pneumoniae, UniProt A0A0H2UQC6)
T1 construct: gene fld; apo form for ITC, SeMet holo form for the crystal structure
Assay: ITC at […]°C ([…] NaCl, […] MES, pH […]); crystal structure of the FMN complex; thermal stabilization by CD, fluorescence and DSC
Type: binding

T1 sequence (A0A0H2UQC6 entry or part of it): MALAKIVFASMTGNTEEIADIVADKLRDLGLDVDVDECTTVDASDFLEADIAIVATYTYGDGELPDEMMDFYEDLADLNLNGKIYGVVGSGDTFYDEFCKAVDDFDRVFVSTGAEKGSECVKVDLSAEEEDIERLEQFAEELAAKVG

Cc1cc2nc3c(=O)[nH]c(=O)nc-3n(C[C@H](O)[C@H](O)[C@H](O)COP(=O)(O)O)c2cc1C [FMN]
Kd: 83 ± 9 nM
